US20250282828A1, “PEPTIDES FOR THE TREATMENT OF RESPIRATORY INFECTIONS OF VIRAL ORIGIN” (CENTRO DE INGENIERÍA GENÉTICA Y BIOTECNOLOGÍA, priority 2020, published 2025)
pIC50, pKd: −log10 of the molar value. No end group written: not given here.

Assays:
[1] = molecular target: pAb anti-SEQ ID NO: 1; assay: BIACORE surface plasmon resonance interaction with immobilized peptide; assay type: binding, rabbit
[2] = molecular target: p24 (HIV) (Human immunodeficiency virus type 1 group M subtype B, UniProt P04591); assay: as above; assay type: binding, HIV-1
[3] = test system: capsid protein of the Influenza H1N1 virus; assay: as above; assay type: binding
[4] = molecular target: receptor binding-domain of the viral S protein (RBD) (Severe acute respiratory syndrome coronavirus 2, UniProt P0DTC2); assay: as above; parameters: species or system SARS-CoV-2
[5] = molecular target: T1, extracellular domain of the ACE2 receptor (Homo sapiens, UniProt Q9BYF1); assay: as above; assay type: binding
T1 construct: the extracellular domain of the ACE2 receptor
T1 sequence (Q9BYF1 18-740): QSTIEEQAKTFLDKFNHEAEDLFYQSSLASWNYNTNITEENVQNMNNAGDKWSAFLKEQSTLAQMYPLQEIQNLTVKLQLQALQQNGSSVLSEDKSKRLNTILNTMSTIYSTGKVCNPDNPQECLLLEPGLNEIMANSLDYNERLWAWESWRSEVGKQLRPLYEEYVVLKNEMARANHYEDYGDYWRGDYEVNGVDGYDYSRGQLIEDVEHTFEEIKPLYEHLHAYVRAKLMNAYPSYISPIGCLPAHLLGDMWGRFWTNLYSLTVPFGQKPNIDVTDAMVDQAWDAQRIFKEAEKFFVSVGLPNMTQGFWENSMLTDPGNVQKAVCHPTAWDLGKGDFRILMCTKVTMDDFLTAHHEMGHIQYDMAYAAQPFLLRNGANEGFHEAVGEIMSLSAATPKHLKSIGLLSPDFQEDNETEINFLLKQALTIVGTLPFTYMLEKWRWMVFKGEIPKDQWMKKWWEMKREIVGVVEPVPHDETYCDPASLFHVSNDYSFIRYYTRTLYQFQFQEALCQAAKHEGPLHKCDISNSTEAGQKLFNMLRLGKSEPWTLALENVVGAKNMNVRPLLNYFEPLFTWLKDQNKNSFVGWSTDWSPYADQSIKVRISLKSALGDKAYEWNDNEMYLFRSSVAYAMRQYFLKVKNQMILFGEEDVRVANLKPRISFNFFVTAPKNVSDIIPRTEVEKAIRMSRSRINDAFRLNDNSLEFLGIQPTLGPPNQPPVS

[6] = test system: Parainfluenza virus type 3 (HPIV3); assay type: cell-based; settings: 50 μM; HAE, 3 days
[7] = test system: respiratory syncytial virus (RSV); assay: Respiratory syncytial virus replication in bronchial HAE (RT-qPCR); assay type: cell-based; settings: 50 μM, 10 days
[8] = test system: AdV 7 Gomen strain; assay: Adenovirus type 7 replication in bronchial HAE (qPCR); assay type: cell-based; settings: 50 μM, 24 hours
[9] = test system: SARS-CoV-2; assay: Treatment of patients infected by SARS-CoV-2 (RT-qPCR of nasopharyngeal swabs); assay type: in vivo, human; settings: for SARS-CoV-2 negative patients/Total: chloroquine
Protocol: Human studies were conducted in accordance with the Declaration of Helsinki. […] The peptide was administered subcutaneously. The presence of SARS-CoV-2 viral RNA was determined by RT-qPCR (Roche) in nasopharyngeal swabs of the patients every 48 or 96 hours during 15 days. Four groups were formed, each with 20 patients, all in the initial stage of the disease and with similar characteristics. Group 1 patients received the most frequently used treatment in COVID-19 therapy based on Kaletra (Lopinavir/Ritonavir), chloroquine, and Heberon™ Alpha R (IFN α2b). Group 2 received this treatment, plus the peptide identified in the Sequence Listing as SEQ ID NO: 1. The latter was administered subcutaneously, at 2 mg/Kg of weight for 5 days. Group 3 patients received treatment based on Kaletra, chloroquine and a combined formulation of intramuscular IFN a2b (3.0 million international units, MIU) and IFN y (0.5 MIU). Patients in group 4 received the same treatment as Group 3, plus the peptide identified in the Sequence Listing as SEQ ID NO: 1 (2 mg/Kg of weight), subcutaneously for 5 days.

[10] = test system: SARS-CoV-2; settings: 72 h, 100 μM
[11] = test system: CSF virus Margarita strain; settings: 72 h

For RVTQMNLNDRLASLYDKV [SEQ ID NO: 1], the pKd [1] was 6.94, the ka [1] was 2750 M⁻¹ s⁻¹ and the kd [1] was 0.000318 s⁻¹. For the same sequence, the interaction [2] was “absence of interaction”, the pKd [3] was 6.11 and the interaction [3] was “showed interaction”. The interaction [4] was “neither the RBD nor the ACE2 peptide interact”, the interaction [5] was “neither the RBD nor the ACE2 peptide interact” and the “Parainfluenza Type 3 Inhib. %” value [6] was 79%. The “Sincitial respiratory virus Inhib. %” value [7] was 80%, the “Adenovirus Ad7 Inhib. %” value [8] was 68% and the “SARS-CoV-2 negative patients/Total” value ([9]; day 2, Groups 3/4: Kaletra, IFN a2b + IFN y without/with peptide 2 mg/Kg s.c. 5 days) was 0/20. The “SARS-CoV-2 negative patients/Total” value ([9]; day 2 after treatment onset, Groups 1/2: Kaletra, Heberon Alpha R without/with peptide 2 mg/Kg s.c. 5 days) was 0/20, the “SARS-CoV-2 negative patients/Total” value ([9]; day 4, Groups 1/2: Kaletra, Heberon Alpha R without/with peptide 2 mg/Kg s.c. 5 days) was 16/20 and the “SARS-CoV-2 negative patients/Total” value ([9]; day 4, Groups 3/4: Kaletra, IFN a2b + IFN y without/with peptide 2 mg/Kg s.c. 5 days) was 17/20. The “SARS-CoV-2 negative patients/Total” value ([9]; day 6, Groups 1/2: Kaletra, Heberon Alpha R without/with peptide 2 mg/Kg s.c. 5 days) was 20/20, the “SARS-CoV-2 negative patients/Total” value ([9]; day 6, Groups 3/4: Kaletra, IFN a2b + IFN y without/with peptide 2 mg/Kg s.c. 5 days) was 20/20 and the “SARS-CoV-2 negative patients/Total” value ([9]; day 10, Groups 1/2: Kaletra, Heberon Alpha R without/with peptide 2 mg/Kg s.c. 5 days) was 20/20. For the same sequence, the “SARS-CoV-2 negative patients/Total” value ([9]; day 10, Groups 3/4: Kaletra, IFN a2b + IFN y without/with peptide 2 mg/Kg s.c. 5 days) was 20/20, the “SARS-CoV-2 negative patients/Total” value ([9]; day 14, Groups 1/2: Kaletra, Heberon Alpha R without/with peptide 2 mg/Kg s.c. 5 days) was 20/20 and the “SARS-CoV-2 negative patients/Total” value ([9]; day 14, Groups 3/4: Kaletra, IFN a2b + IFN y without/with peptide 2 mg/Kg s.c. 5 days) was 20/20. For the same sequence, the “SARS-CoV-2 negative patients/Total” value ([9]; day 20, Groups 1/2: Kaletra, Heberon Alpha R without/with peptide 2 mg/Kg s.c. 5 days) was 20/20, the “SARS-CoV-2 negative patients/Total” value ([9]; day 20, Groups 3/4: Kaletra, IFN a2b + IFN y without/with peptide 2 mg/Kg s.c. 5 days) was 20/20 and the “patients negative for SARS-CoV-2” value ([9]; fourth day after treatment onset, Group 2 (peptide + Kaletra, chloroquine, Heberon Alpha R)) was 80%. For the same sequence, the “patients negative for SARS-CoV-2” value ([9]; fourth day after treatment onset, Group 4 (peptide + Kaletra, chloroquine, IFN a2b + IFN y)) was 85%, the “patients negative for SARS-CoV-2” value ([9]; sixth day after treatment onset, Group 2) was 100% and the “patients negative for SARS-CoV-2” value ([9]; sixth day after treatment onset, Group 4) was 100%. For the same sequence, the “Bronchial HAE Inhibition %” value [10] was 84%, the “Nasal HAE Inhibition %” value [10] was 74% and the pIC50 [11] was 6.52.
